≈ marks a conversion by molar mass, not a printed value.
How the values were obtained:
E. coli JT 39 = assay: MIC by standard microtitre method, alone and in admixture with ampicillin; format: cell-based; conditions: Escherichia coli, JT39; compound alone
Description: (§1) The MICs of ampicillin, 9-O-(N-glycyl)-2-amino- ethylclavulanic acid (GAECA) alone and in admixture against a number of bacteria were determined by a standard microtitre method. The results obtained were as follows: The MICs of ampicillin, 9-O-(N-alanyl)-2-amino- ethylclavulanic acid (AAECA) alone and in admixture against a number of bacteria were determined by a standard microtitre method.

Klebsiella aerog. E.70 = assay: as above; format: cell-based; conditions: compound alone
Description: as §1

Proteus C 889 = assay: as above; format: cell-based; conditions: compound alone
Description: as §1

Staph. aureus Russell = assay: as above; format: cell-based; conditions: compound alone; for MIC: Staphylococcus aureus
Description: as §1

E.Col: E96 (R + strain) = assay: Synergistic activity in mice infected intraperitoneally; format: in vivo; conditions: mice infected intraperitoneally with E.Col: E96 (R + strain); oral and sub-cutaneous route
Text: The results obtained were as follows: • Synergistic activity in Mice infected intraperitoneally with E.Col: E96 (R + strain) [formula]

| MIC (E. coli JT 39) [µg/mL] | MIC (Klebsiella aerog. E.70) [µg/mL] | MIC (Proteus C 889) [µg/mL] | MIC (Staph. aureus Russell) [µg/mL] | MIC (µg/ml) Proteus C 889 (Proteus C 889) [µg/mL] | MIC (µg/ml) Staph. aureus Russell (Staph. aureus Russell) [µg/mL] | SMILES | Synergistic activity in vivo (E.Col: E96 (R + strain)) |
| --- | --- | --- | --- | --- | --- | --- | --- |
| 16 (≈ 51.1 µM) | 125 (≈ 399 µM) | 250 (≈ 798 µM) | 8 (≈ 25.5 µM) | – | – | C[C@H](N)C(=O)NCCOC/C=C1\O[C@@H]2CC(=O)N2[C@H]1C(=O)O [AAECA, 9-0-(N-L-alanyl)-2-aminoethylclavulanic acid] | good activity in vivo by both the oral and sub-cutaneous route |
| 2000 (≈ 5720 µM) | 500 (≈ 1430 µM) | 2000 (≈ 5720 µM) | 250 (≈ 715 µM) | 1000 (≈ 2860 µM) | 500 (≈ 1430 µM) | CC1(C)S[C@@H]2[C@H](NC(=O)[C@H](N)c3ccccc3)C(=O)N2[C@H]1C(=O)O [Ampicillin, ampicillin, reference compound] | – |
| 51.2 (≈ 171 µM) | 62.5 (≈ 209 µM) | 250 (≈ 835 µM) | 8 (≈ 26.7 µM) | – | – | NCC(=O)NCCOC/C=C1\O[C@@H]2CC(=O)N2[C@H]1C(=O)O [GAECA, 9-0-(N-Glycyl)-2-aminoethylclavulanic acid] | – |

Reference: patent publication EP0013790A1, “Clavulanic acid derivatives, their preparation and pharmaceutical compositions containing them” (BEECHAM GROUP PLC, priority 1978, dated 1980)
